Results taken from patent US11229618B2 (Amarin Pharmaceuticals Ireland Limited, priority 2012, dated 2022).

Test: MARINE: plasma fatty acid concentrations, ratios and class proportions (GC/FID)
Assay type: in vivo, human
Conditions: for Mono-unsaturated, proportion to total fatty acids, Mean placebo-adjusted percent change from baseline / Total omega-6, proportion to total fatty acids, Mean placebo-adjusted percent change from baseline / Saturated, proportion to total fatty acids, Mean placebo-adjusted percent change from baseline / Total omega-3, proportion to total fatty acids, Mean placebo-adjusted percent change from baseline: Plasma; for Palmitic Mean placebo-adjusted percent change from baseline / Oleic Mean placebo-adjusted percent change from baseline / Stearic Mean placebo-adjusted percent change from baseline / Linoleic Mean placebo-adjusted percent change from baseline / DHA Mean placebo-adjusted percent change from baseline / AA Mean placebo-adjusted percent change from baseline / DPAn-3 Mean placebo-adjusted percent change from baseline: plasma, week 12
Method: A multi-center, placebo-controlled randomized, double-blind, 12-week study with an open-label extension is performed to evaluate the efficacy and safety of AMR101 in patients with fasting triglyceride levels≥500 mg/dL. The primary objective of the study is to determine the efficacy of AMR101 2 g daily and 4 g daily, compared to placebo, in lowering fasting TG levels in patients with fasting TG levels≥500 mg/dL and ≤1500 mg/dL (≥5.65 mmol/L and ≤16.94 mmol/L).
Eligible patients will be randomly assigned at Visit 4 (Week 0) to receive orally AMR101 2 g daily, AMR101 4 g daily, or placebo for the 12-week double-blind treatment period. AMR101 is provided in 1 g liquid-filled, oblong, gelatin capsules. The matching placebo capsule is filled with light liquid paraffin and contains 0 g of AMR101. During the double-blind treatment period, patients will take 2 capsules (AMR101 or matching placebo) in the morning and 2 in the evening for a total of 4 capsules per day. Patients in the AMR101 2 g/day treatment group will receive 1 AMR101 1 g capsule and 1 matching placebo capsule in the morning and in the evening. Patients in the AMR101 4 g/day treatment group will receive 2 AMR101 1 g capsules in the morning and evening.
Lipids were extracted from plasma and RBC suspensions and converted into fatty acid methyl esters for analysis using a standard validated gas chromatography/flame ionization detection method. Fatty acid parameters were compared between EPA treatment groups and placebo using an ANCOVA model with treatment, gender, type of statin therapy, and presence of diabetes as factors, and the baseline parameter value as a covariate. LSMs, SEs, and 2-tailed 95% confidence intervals for each treatment group and for each comparison were determined.
The monounsaturated fatty acid group included myristoleic, palmitoleic, cis-vaccenic, oleic, gondoic/gadoleic, erucic and nervonic acids. The saturated fatty acid group included myristic, palmitic, stearic, arachidic, behenic and lignoceric acids. The “total omega-3” group included α-linolenic, stearidonic, eicosatrienoic, ω-3 arachidonic, eicosapentaenoic, ω-3 docosapentaenoic and docosahecaenoic acids. The “total omega-6” group included linoleic, γ-linolenic, eicosadienoic, dihomo-γ-linolenic, ω-6 arachidonic, adrenic, and ω-6 docosapentaenoic acids. The “total fatty acid” group represented the sum of the monounsaturated, saturated, total omega-3 and total omega-6 groups.

[1] = IPE 2 g/day vs placebo, P <0.0001
[2] = IPE 4 g/day vs placebo, P <0.0001

Compound: CC/C=C\C/C=C\C/C=C\C/C=C\C/C=C\CCCC(=O)OCC [IPE, all-cis eicosa-5,8,11,14,17-pentaenoic acid ethyl ester]
- Mono-unsaturated, proportion to total fatty acids, Mean placebo-adjusted percent change from baseline (IPE 2 g/day vs placebo, P 0.0009): −7.4%
- Total omega-6, proportion to total fatty acids, Mean placebo-adjusted percent change from baseline (IPE 2 g/day vs placebo, P 0.3044): 3.2%
- Saturated, proportion to total fatty acids, Mean placebo-adjusted percent change from baseline (IPE 2 g/day vs placebo, P 0.8076): −0.4%
- Total omega-3, proportion to total fatty acids, Mean placebo-adjusted percent change from baseline [1]: 68.4%
- Mono-unsaturated, proportion to total fatty acids, Mean placebo-adjusted percent change from baseline (IPE 4 g/day vs placebo, P 0.0008): −7.7%
- Saturated, proportion to total fatty acids, Mean placebo-adjusted percent change from baseline (IPE 4 g/day vs placebo, P 0.1049): −2.8%
- Total omega-6, proportion to total fatty acids, Mean placebo-adjusted percent change from baseline (IPE 4 g/day vs placebo, P 0.8846): 0.5%
- Total omega-3, proportion to total fatty acids, Mean placebo-adjusted percent change from baseline [2]: 132.7%
- Palmitic Mean placebo-adjusted percent change from baseline (IPE 2 g/day vs placebo, P 0.0011): −23.9%
- Oleic Mean placebo-adjusted percent change from baseline (IPE 2 g/day vs placebo, P 0.0023): −23.8%
- Stearic Mean placebo-adjusted percent change from baseline (IPE 2 g/day vs placebo, P 0.0040): −20.7%
- Linoleic Mean placebo-adjusted percent change from baseline (IPE 2 g/day vs placebo, P 0.0136): −15.2%
- DHA Mean placebo-adjusted percent change from baseline (IPE 2 g/day vs placebo, P 0.7217): −2.3%
- AA Mean placebo-adjusted percent change from baseline [1]: −16.4%
- DPAn-3 Mean placebo-adjusted percent change from baseline [1]: 107.2%
- Oleic Mean placebo-adjusted percent change from baseline (IPE 4 g/day vs placebo, P 0.0001): −31.9%
- Stearic Mean placebo-adjusted percent change from baseline (IPE 4 g/day vs placebo, P 0.0002): −28.4%
- Linoleic Mean placebo-adjusted percent change from baseline (IPE 4 g/day vs placebo, P 0.0003): −23.7%
- DHA Mean placebo-adjusted percent change from baseline (IPE 4 g/day vs placebo, P 0.7115): 2.4%
- AA Mean placebo-adjusted percent change from baseline [2]: −26.8%
- DPAn-3 Mean placebo-adjusted percent change from baseline [2]: 150.8%
- Palmitic Mean placebo-adjusted percent change from baseline [2]: −34.4%
